Results published in PubChem BioAssay AID248 (DTP/NCI, 2004).
Inconclusive results and toxic doses are left out.

Tested on: L1210 leukemia ip in BDF1 mice, survival T/C
Test: NCI In Vivo Anticancer Drug Screen. Data for tumor model L1210 Leukemia (intraperitoneal) in B6D2F1 (BDF1) mice
Settings: endpoint: mean survival time, higher = longer survival
Procedure, shortened: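 Each compound was tested against a transplantable tumor grown in mice. The endpoint was survival, with treated animals benchmarked against vehicle controls as a simple ratio.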

Question: Which T/C (dose: 75.0 mg/kg/injection, schedule: Q01DX001 (ip), vehicle: saline) does the source give for `CC(=O)Oc1ccc[nH]c1=O` here?
Answer: 103 % of control

Question: What about the T/C (dose: 75.0 mg/kg/injection, schedule: Q04DX003 (ip), vehicle: saline) of the same compound?
Answer: 103 % of control

Question: And the T/C (dose: 100.0 mg/kg/injection, schedule: Q01DX001 (ip), vehicle: carboxymethylcellulose (CMC))?
Answer: 100 % of control

Question: And the T/C (dose: 100.0 mg/kg/injection, schedule: Q01DX009 (ip), vehicle: carboxymethylcellulose (CMC))?
Answer: 98 % of control

Question: What about the T/C (dose: 100.0 mg/kg/injection, schedule: Q01DX009 (ip), vehicle: saline) of the same compound?
Answer: 101 % of control

Question: And the T/C (dose: 100.0 mg/kg/injection, schedule: Q01DX015 (ip), vehicle: saline)?
Answer: 102 % of control

Question: And the T/C (dose: 150.0 mg/kg/injection, schedule: Q01DX001 (ip), vehicle: saline)?
Answer: 102 % of control

Question: And the T/C (dose: 150.0 mg/kg/injection, schedule: Q04DX003 (ip), vehicle: saline)?
Answer: 100 % of control

Question: And the T/C (dose: 200.0 mg/kg/injection, schedule: Q01DX001 (ip), vehicle: carboxymethylcellulose (CMC))?
Answer: 97 % of control

Question: What about the T/C (dose: 200.0 mg/kg/injection, schedule: Q01DX009 (ip), vehicle: carboxymethylcellulose (CMC)) of the same compound?
Answer: 109 % of control

Question: And the T/C (dose: 200.0 mg/kg/injection, schedule: Q01DX009 (ip), vehicle: saline)?
Answer: 114 % of control

Question: And the T/C (dose: 200.0 mg/kg/injection, schedule: Q01DX015 (ip), vehicle: saline)?
Answer: 124 % of control

Question: And the T/C (dose: 300.0 mg/kg/injection, schedule: Q01DX001 (ip), vehicle: saline)?
Answer: 110 % of control

Question: And the T/C (dose: 300.0 mg/kg/injection, schedule: Q04DX003 (ip), vehicle: saline)?
Answer: 113 % of control

Question: And the T/C (dose: 400.0 mg/kg/injection, schedule: Q01DX001 (ip), vehicle: carboxymethylcellulose (CMC))?
Answer: 103 % of control

Question: What about the T/C (dose: 400.0 mg/kg/injection, schedule: Q01DX009 (ip), vehicle: saline) of the same compound?
Answer: 153 % of control

Question: And the T/C (dose: 800.0 mg/kg/injection, schedule: Q01DX009 (ip), vehicle: carboxymethylcellulose (CMC))?
Answer: 154 % of control

Question: And the T/C (dose: 800.0 mg/kg/injection, schedule: Q01DX009 (ip), vehicle: saline)?
Answer: 88 % of control

Question: Which T/C (dose: 50.0 mg/kg/injection, schedule: Q04DX002 (ip), vehicle: alcohol) does the source give for `Cc1ccc(B(O)O)cc1` here?
Answer: 107 % of control

Question: And the T/C (dose: 100.0 mg/kg/injection, schedule: Q04DX002 (ip), vehicle: alcohol)?
Answer: 101 % of control

Question: What about the T/C (dose: 200.0 mg/kg/injection, schedule: Q04DX002 (ip), vehicle: alcohol) of the same compound?
Answer: 101 % of control

Question: With `CCOC(=O)C(C)SCC(CSC(C)C(=O)OCC)(CSC(C)C(=O)OCC)CSC(C)C(=O)OCC` (centres undefined) as the compound, how does the T/C (dose: 100.0 mg/kg/injection, schedule: Q01DX001 (ip), vehicle: saline with Tween-80) read?
Answer: 104 % of control

Question: And the T/C (dose: 200.0 mg/kg/injection, schedule: Q01DX001 (ip), vehicle: saline with Tween-80)?
Answer: 107 % of control

Question: And the T/C (dose: 400.0 mg/kg/injection, schedule: Q01DX001 (ip), vehicle: saline with Tween-80)?
Answer: 104 % of control
